Experimental data taken from ChEMBL document CHEMBL2440076, “New triarylpyrazoles as broad-spectrum anticancer agents: design, synthesis, and biological evaluation” (Eur J Med Chem, 2013).

Key:
[1] = tested on: UACC-257; test: Growth inhibition of human UACC257 cells assessed as cell growth at 10 uM after 48 hrs by sulforhodamine B assay; format: functional; details: UACC-257, 48 h, read-out: Activity
[2] = tested on: RPMI-8226; test: Growth inhibition of human RPMI8226 cells assessed as cell growth at 10 uM after 48 hrs by sulforhodamine B assay; format: functional; details: RPMI-8226, 48 h, read-out: Activity
[3] = tested on: ACHN; test: Growth inhibition of human ACHN cells assessed as cell growth at 10 uM after 48 hrs by sulforhodamine B assay; format: functional; details: read-out: Activity
[4] = tested on: NCI-H322M; test: Growth inhibition of human NCI-H322M cells assessed as cell growth at 10 uM after 48 hrs by sulforhodamine B assay; format: functional; details: read-out: Activity
[5] = tested on: SW-620; test: Growth inhibition of human SW620 cells assessed as cell growth at 10 uM after 48 hrs by sulforhodamine B assay; format: functional; details: SW-620, 48 h, read-out: Activity
[6] = Growth inhibition of human HCC2998 cells after 48 hrs by sulforhodamine B assay; format: functional; details: HCC 2998, 48 h
[7] = tested on: SF-295; test: Growth inhibition of human SF295 cells after 48 hrs by sulforhodamine B assay; format: functional, cell-based; details: SF-295, 48 h
[8] = tested on: SF-539; test: Growth inhibition of human SF539 cells assessed as cell growth at 10 uM after 48 hrs by sulforhodamine B assay; format: functional; details: SF-539, 48 h, read-out: Activity
[9] = tested on: KM12; test: Growth inhibition of human KM12 cells assessed as cell growth at 10 uM after 48 hrs by sulforhodamine B assay; format: functional; details: KM12, 48 h, read-out: Activity
[10] = tested on: DU-145; test: Growth inhibition of human DU145 cells assessed as cell growth at 10 uM after 48 hrs by sulforhodamine B assay; format: functional; details: DU-145, 48 h, read-out: Activity
[11] = tested on: MCF7; test: Growth inhibition of human MCF7 cells assessed as cell growth at 10 uM after 48 hrs by sulforhodamine B assay; format: functional; details: MCF7, 48 h, read-out: Activity
[12] = tested on: NCI-H522; test: Growth inhibition of human NCI-H522 cells after 48 hrs by sulforhodamine B assay; format: functional; details: NCI-H522, 48 h
[13] = tested on: UACC-257; test: Growth inhibition of human UACC257 cells after 48 hrs by sulforhodamine B assay; format: functional; details: UACC-257, 48 h
[14] = tested on: MDA-MB-435; test: Growth inhibition of human MDA-MB-435 cells assessed as cell growth at 10 uM after 48 hrs by sulforhodamine B assay; format: functional; details: MDA-MB-435, 48 h, read-out: Activity
[15] = tested on: SW-620; test: Growth inhibition of human SW620 cells after 48 hrs by sulforhodamine B assay; format: functional; details: SW-620, 48 h
[16] = tested on: BT-549; test: Growth inhibition of human BT549 cells after 48 hrs by sulforhodamine B assay; format: functional; details: BT-549, 48 h
[17] = tested on: NCI-H226; test: Growth inhibition of human NCI-H226 cells assessed as cell growth at 10 uM after 48 hrs by sulforhodamine B assay; format: functional; details: NCI-H226, 48 h, read-out: Activity
[18] = tested on: HCT-116; test: Growth inhibition of human HCT116 cells after 48 hrs by sulforhodamine B assay; format: functional; details: HCT-116, 48 h
[19] = tested on: BT-549; test: Growth inhibition of human BT549 cells assessed as cell growth at 10 uM after 48 hrs by sulforhodamine B assay; format: functional; details: BT-549, 48 h, read-out: Activity
[20] = tested on: RXF 393; test: Growth inhibition of human RXF393 cells after 48 hrs by sulforhodamine B assay; format: functional; details: RXF 393, 48 h
[21] = tested on: SN12C; test: Growth inhibition of human SN12C cells assessed as cell growth at 10 uM after 48 hrs by sulforhodamine B assay; format: functional; details: read-out: Activity
[22] = tested on: A498; test: Growth inhibition of human A498 cells assessed as cell growth at 10 uM after 48 hrs by sulforhodamine B assay; format: functional; details: A498, 48 h, read-out: Activity
[23] = tested on: UACC-62; test: Growth inhibition of human UACC62 cells after 48 hrs by sulforhodamine B assay; format: functional; details: UACC-62, 48 h
[24] = tested on: COLO 205; test: Growth inhibition of human COLO205 cells after 48 hrs by sulforhodamine B assay; format: functional; details: COLO 205, 48 h
[25] = tested on: ACHN; test: Growth inhibition of human ACHN cells after 48 hrs by sulforhodamine B assay; format: functional
[26] = tested on: SK-MEL-28; test: Growth inhibition of human SK-MEL-28 cells after 48 hrs by sulforhodamine B assay; format: functional; details: SK-MEL-28, 48 h
[27] = tested on: CAKI-1; test: Growth inhibition of human CAKI-1 cells assessed as cell growth at 10 uM after 48 hrs by sulforhodamine B assay; format: functional; details: CAKI-1, 48 h, read-out: Activity
[28] = tested on: 786-0; test: Growth inhibition of human 786-0 cells assessed as cell growth at 10 uM after 48 hrs by sulforhodamine B assay; format: functional; details: 786-0, 48 h, read-out: Activity
[29] = tested on: UACC-62; test: Growth inhibition of human UACC62 cells assessed as cell growth at 10 uM after 48 hrs by sulforhodamine B assay; format: functional; details: UACC-62, 48 h, read-out: Activity
[30] = tested on: A498; test: Growth inhibition of human A498 cells after 48 hrs by sulforhodamine B assay; format: functional, cell-based; details: A498, 48 h
[31] = tested on: SK-MEL-28; test: Growth inhibition of human SK-MEL-28 cells assessed as cell growth at 10 uM after 48 hrs by sulforhodamine B assay; format: functional; details: SK-MEL-28, 48 h, read-out: Activity
[32] = tested on: MOLT-4; test: Growth inhibition of human MOLT4 cells assessed as cell growth at 10 uM after 48 hrs by sulforhodamine B assay; format: functional; details: MOLT-4, 48 h, read-out: Activity
[33] = tested on: IGROV-1; test: Growth inhibition of human IGROV1 cells after 48 hrs by sulforhodamine B assay; format: functional; details: IGROV-1, 48 h
[34] = tested on: SF-539; test: Growth inhibition of human SF539 cells after 48 hrs by sulforhodamine B assay; format: functional; details: SF-539, 48 h
[35] = read-out: LC50 (the source's name)

With `COc1cc(-c2nn(-c3cccc(NC(=O)c4ccccc4)c3)cc2-c2ccncc2)ccc1Cl` the growth at 10 µM [1] was 8.64%, the growth at 10 µM [2] was 9.39% and the growth at 10 µM [3] was 32.3%. It also gave a growth at 10 µM [4] of 52.3%, a growth at 10 µM [5] of 18.4% and a GI50 [6] of 2320 nM. For the same compound, the TGI [6] was 22.4 µM, the CC50 [6, 35] was > 100 µM and the GI50 [7] was 337 nM. For the same compound, the IC50 [7] was 340 nM, the TGI [7] was 2260 nM and the CC50 [7, 35] was > 100 µM. It also gave a growth at 10 µM [8] of -15%, a growth at 10 µM [9] of 12.3% and a growth at 10 µM [10] of 11.6%. For the same compound, the growth at 10 µM [11] was 4.67%, the GI50 [12] was 317 nM and the LC50 (concentration killing 50% of cells) [12] was > 100 µM. For the same compound, the TGI [12] was > 100 µM, the GI50 [13] was 859 nM and the TGI [13] was > 100 µM. For the same compound, the CC50 [13, 35] was > 100 µM, the growth at 10 µM [14] was -57.9% and the GI50 [15] was 551 nM. The TGI [15] was > 100 µM, the CC50 [15, 35] was > 100 µM and the GI50 [16] was 1330 nM. For the same compound, the LC50 (50% lethal concentration) [16] was > 100 µM, the TGI [16] was > 100 µM and the growth at 10 µM [17] was 39.1%. The GI50 [18] was 500 nM, the TGI [18] was > 100 µM and the CC50 [18, 35] was > 100 µM. For the same compound, the growth at 10 µM [19] was 1.29%, the GI50 [20] was 646 nM and the LC50 (concentration killing 50% of cells) [20] was > 100 µM. The TGI [20] was 6.34 µM, the growth at 10 µM [21] was 28.8% and the growth at 10 µM [22] was -23.2%. The GI50 [23] was 692 nM, the LC50 (50% lethal concentration) [23] was > 100 µM and the TGI [23] was > 100 µM. The GI50 [24] was 522 nM, the LC50 (concentration killing 50% of cells) [24] was 68.4 µM and the TGI [24] was 3.23 µM. The GI50 [25] was 754 nM, the TGI [25] was > 100 µM and the CC50 [25, 35] was > 100 µM. The GI50 [26] was 3.86 µM, the LC50 [26] was > 100 µM and the TGI [26] was > 100 µM. It also gave a growth at 10 µM [27] of 40.6%, a growth at 10 µM [28] of 21.3% and a growth at 10 µM [29] of 32.5%. The GI50 [30] was 361 nM, the IC50 [30] was 360 nM and the TGI [30] was 3.14 µM. The CC50 [30, 35] was > 100 µM, the growth at 10 µM [31] was 34.4% and the growth at 10 µM [32] was 0.66%. The GI50 [33] was 534 nM, the LC50 (concentration killing 50% of cells) [33] was > 100 µM and the TGI [33] was > 100 µM. For the same compound, the GI50 [34] was 387 nM, the LC50 (concentration killing 50% of cells) [34] was > 100 µM and the TGI [34] was 2880 nM.
